Patent publication US20140296174A1, “SILK-BASED MULTIFUNCTIONAL BIOMEDICAL PLATFORM” (TUFTS UNIVERSITY, priority 2011, published 2014)

What was measured:
[1] = Doxorubicin storage stability in silk films/MPAs versus solution (fluorescence); format: physicochemical; conditions: 3 weeks at −20° C. and 60° C.; excitation 430, emission 550
Protocol: Silk films for degradation and stability studies were prepared by casting of 6% (w/v) silk solution containing 1.0 mg/mL doxorubicin on a patterned mold. After drying at ambient conditions for 48 hours the samples were removed and vapor annealed for 24 hours as previously described (Jin et al., 2005).
After 3 weeks, the silk films were degraded with 10 mg/mL proteinase k for 6 hours, and doxorubicin concentration for all samples was determined by comparing fluorescence to a standard curve of known concentrations (excitation=430, emission=550).
The silk DxR-MPA was evaluated at different time points for optical performance and drug content eluted by measuring absorbance at 495 nm and comparing measured values to a standard curve (FIGS. 11A & 33). […] The doxorubicin-loaded silk-MPAs were stored at −20° C.

[2] = Binding of doxorubicin to silk carrier; format: physicochemical; conditions: typically
Excerpt: In addition to having properties which make silk well suited to drug delivery in general, silk is uniquely suited to deliver doxorubicin, as we have observed that doxorubicin interacts strongly with the silk. […] The interaction between the silk and the doxorubicin also results in a large fraction (typically more than 50%) of the total doxorubicin dose is bound to the carrier. In some embodiments, therefore, the carrier may be proteolytically degraded to enhance release the bound doxorubicin. This provide an opportunity to design protease-triggered drug release systems. […] Degradation-mediated drug release from silk biomaterials can be used to design systems that provide drug locally proportionately to disease progression: aggressive disease/increased proteolysis would degrade the silk carrier more rapidly, releasing larger doses of drug than in healthy tissue.

[3] = silk microspheres, depending on processing pH; cited from earlier work

| SMILES | doxorubicin fluorescence after storage [1] | fraction of the total doxorubicin dose bound to the carrier [2] | fraction released [3] |
| --- | --- | --- | --- |
| COc1cccc2c1C(=O)c1c(O)c3c(c(O)c1C2=O)C[C@@](O)(C(=O)CO)C[C@@H]3O[C@H]1C[C@H](N)[C@H](O)[C@H](C)O1 [doxorubicin] | decreases | more than 50% |  |
| CN(C)c1ccc(C(=C2C=CC(=[N+](C)C)C=C2)c2ccc(N(C)C)cc2)cc1 [crystal violet] |  |  | 25-60% |
